The values below come from ChEMBL document CHEMBL1759872, “Small-molecule probe using dual signals to monitor leucine aminopeptidase activity” (Bioorg Med Chem Lett, 2011).

Data set [1] concerns HCT-116. Briefly: Drug uptake in human HCT116 cells at 20 uM after 20 mins by DAPI staining based microscopic analysis in presence of bestatin. Format: ADME, cell-based. Particulars: hct-116, 20 min; call rule not given here.
Data set [2] concerns HCT-116. Nature of the data set: Drug uptake in human HCT116 cells at 20 uM after 20 mins by DAPI staining based microscopic analysis. Format: ADME, cell-based. The note with it: hct-116, 20 min.
The species entered for another data set is Sus scrofa. Nature of the data set: Activity at pig kidney LAP after 40 mins by Michaelis-Menten equation. Type of data set: tissue-based.
Data set [3] in a line: Competitive inhibition of pig kidney LAP activity using N-(6-Methoxypyridine-3-yl), (S)-2-amino-4-methylpentanamide as substrate after 10 mins by Michaelis-Menten equation.
A short description of data set [4]: Competitive inhibition of pig kidney LAP activity using DCDHF-Leu as substrate after 10 mins by Michaelis-Menten equation.
Data set [5] can be described thus: Competitive inhibition of pig kidney LAP activity using l-Leucine-p-nitroanilide as substrate after 10 mins by Michaelis-Menten equation.

Turning to `CC(C)C[C@H](N)C(=O)Nc1ccc(/C=C/C2=C(C#N)C(=C(C#N)C#N)OC2(C)C)cc1`, the Drug uptake result with HCT-116 [1] was “Not Active”. Besides, the “fold change (FC)” value in the data set on HCT-116 [2] turned out to be 6. In the data set filed under Sus scrofa, the Michaelis-Menten constant (Km) stood at 8.87 µM and the Vmax is 6.64 µmol/min/mg.

As to `CC(C)C[C@H](NC(=O)[C@@H](O)[C@H](N)Cc1ccccc1)C(=O)O` [UBENIMEX], the IC50 in data set [3] amounted to 7 µM; in data set [4], 4.41 µM; in data set [5], 25 µM.

Take `CC1(C)OC(=C(C#N)C#N)C(C#N)=C1/C=C/c1ccc(N)cc1`: the Drug uptake result with HCT-116 [2] was “Active”.

As to `CC(C)C[C@H](N)C(=O)Nc1ccc([N+](=O)[O-])cc1`, in the data set filed under Sus scrofa, the Km came to 3000 µM and the Vmax was found to be 3.9 µmol/min/mg.

Turning to `COc1ccc(NC(=O)[C@@H](N)CC(C)C)cn1`, in the data set listed under Sus scrofa, the Km stood at 65 µM and the Vmax was 7.7 µmol/min/mg.

As usually defined, the Km is the concentration of substrate that gives half-maximal velocity. A word on the Vmax: it is the top rate of the reaction or transport when substrate is in excess. One may read the IC50 as the concentration that gives 50% inhibition. Read a high IC50 as lower potency.
